# In ChEMBL document CHEMBL4619750, “Benzoxepinones: A new isoform-selective class of tumor associated carbonic anhydrase inhibitors” (Bioorg Med Chem, 2020):
# Key:
# Carbonic anhydrase 2 = Carbonic anhydrase 2 (Homo sapiens, UniProt P00918); test: Inhibition of human carbonic anhydrase 2 assessed as inhibitory constant incubated for 6 hrs by stopped-flow CO2 hydration assay
# Carbonic anhydrase 1 = Carbonic anhydrase 1 (Homo sapiens, UniProt P00915); test: Inhibition of human carbonic anhydrase 1 assessed as inhibitory constant incubated for 6 hrs by stopped-flow CO2 hydration assay
# Carbonic anhydrase 9 = Carbonic anhydrase 9 (Homo sapiens, UniProt Q16790); test: Inhibition of human carbonic anhydrase 9 assessed as inhibitory constant incubated for 6 hrs by stopped-flow CO2 hydration assay
# Sequence of Carbonic anhydrase 1 (P00915 whole entry): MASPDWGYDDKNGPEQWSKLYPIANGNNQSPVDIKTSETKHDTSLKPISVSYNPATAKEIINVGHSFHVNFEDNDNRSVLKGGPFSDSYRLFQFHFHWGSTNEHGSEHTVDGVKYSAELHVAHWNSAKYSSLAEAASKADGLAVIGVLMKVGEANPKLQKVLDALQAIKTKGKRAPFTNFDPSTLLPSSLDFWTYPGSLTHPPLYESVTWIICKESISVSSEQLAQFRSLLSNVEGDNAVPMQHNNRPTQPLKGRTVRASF
SMILES,Ki (Carbonic anhydrase 2) [µM],Ki (Carbonic anhydrase 1) [µM],Ki (Carbonic anhydrase 9) [µM]
COC(=O)C1=Cc2cc(C(=O)OC)ccc2OC(=O)C1,> 100,> 100,0.0393
CCN(CC)c1ccc2c(c1)OC(=O)CC(C(=O)OC)=C2,> 100,> 100,0.0934
COC(=O)C1=Cc2ccc(Cl)cc2OC(=O)C1,> 100,> 100,0.078
COC(=O)C1=Cc2ccc3ccccc3c2OC(=O)C1,> 100,> 100,0.303
COC(=O)C1=Cc2cc(Cl)ccc2OC(=O)C1,76.2,> 100,0.02
COC(=O)C1=Cc2cc(C(C)(C)C)ccc2OC(=O)C1,85.7,> 100,0.0373

# Results, then the molecule that gave them:
Ki (Carbonic anhydrase 2) [µM],Ki (Carbonic anhydrase 1) [µM],Ki (Carbonic anhydrase 9) [µM],SMILES
> 100,> 100,0.0717,COC(=O)C1=Cc2cc(C)ccc2OC(=O)C1
> 100,> 100,0.254,COC(=O)C1=Cc2ccccc2OC(=O)C1
> 100,> 100,0.171,COC(=O)C1=Cc2ccc(C)cc2OC(=O)C1
> 100,> 100,0.0838,COC(=O)C1=Cc2ccc(OC)cc2OC(=O)C1
> 100,> 100,0.0463,COC(=O)C1=Cc2cccc(OC)c2OC(=O)C1
66.8,> 100,0.0402,COC(=O)C1=Cc2cc(OC)ccc2OC(=O)C1
